For assay [1], the system named is Vγ2/Vδ2 T cells.
The test system of assay [2] is Vγ2/Vδ2 T cells. The source holds these as a separate data set.
Assay [3] has as its system γ/δ T cells. Conditions: cited from earlier work.
Assay [4] has as its system γ/δ T cells. Particulars: in vivo, iv; cited from earlier work.

In the case of `NCCCC(O)(P(=O)(O)O)P(=O)(O)O` [Alendronate], in the assay on Vγ2/Vδ2 T cells [1], the “total CD3+ T cells that produced IFNγ” value was 5-10%. Moreover, the “subset showing intracellular IFNγ” value in the assay with Vγ2/Vδ2 T cells [2] is listed as “restricted to the Vγ2/Vδ2 subset”.
Take `O=P(O)(O)C(O)(Cc1cccnc1)P(=O)(O)O` [Risedronate]: in the assay with γ/δ T cells [3], the “activity for stimulating γ/δ T cells” value is recorded as “highly active”.
Take `NCCC(O)(P(=O)(O)O)P(=O)(O)O` [pamidronate, Pamidronate]: in the assay with γ/δ T cells [4], the “change in γ/δ T cell count after drug infusion” value is listed as “increase in γ/δ T cell count”.

(Values after patent US20070025960A1 (priority 2003, published 2007).)
